Source: PubChem BioAssay (NCI)
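96-well plates; 48 h exposure; 5 concentrations. Endpoints by linear interpolation between flanking doses. Not reached: highest tested concentration assigned. GI50 is the concentration that inhibits growth by half. TGI is the concentration that stops growth completely.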

Experiments:
Assay in all cases: NCI anticancer screen, dose series, 48 h
[1] = tested on: 786-0 renal
[2] = tested on: A498 renal
[3] = tested on: A549 NSCLC
[4] = tested on: ACHN renal
[5] = tested on: BT-549 breast
[6] = tested on: CAKI-1 renal
[7] = tested on: CCRF-CEM leukemia
[8] = tested on: COLO 205 colon
[9] = tested on: DU-145 prostate
[10] = tested on: EKVX NSCLC
[11] = tested on: HCC-2998 colon
[12] = tested on: HCT-15 colon
[13] = tested on: HL-60(TB) leukemia
[14] = tested on: HOP-62 NSCLC
[15] = tested on: HOP-92 NSCLC
[16] = tested on: HS 578T breast
[17] = tested on: HT29 colon
[18] = tested on: IGROV1 ovarian
[19] = tested on: K-562 leukemia
[20] = tested on: KM12 colon
[21] = tested on: LOX IMVI melanoma
[22] = tested on: M14 melanoma
[23] = tested on: MALME-3M melanoma
[24] = tested on: MCF7 breast
[25] = tested on: MDA-MB-231 breast
[26] = tested on: MDA-MB-435
[27] = tested on: MDA-MB-468 breast
[28] = tested on: MOLT-4 leukemia

C=C1CCC2C3(C)COC(c4ccccc4F)OC3CCC2(C)C1C/C=C1/C(=O)OCC1O (stereo unspecified)
GI50 [1]: 2020 nM
TGI [1]: 3.69 µM
GI50 [2]: 20.1 µM
TGI [2]: 37.3 µM
GI50 [3]: 4.4 µM
TGI [3]: 94 µM
GI50 [4]: 1850 nM
TGI [4]: 3.34 µM
GI50 [5]: 2600 nM
TGI [5]: 5.76 µM
GI50 [6]: 3.84 µM
TGI [6]: 13.3 µM
GI50 [7]: 1810 nM
TGI [7]: 6.53 µM
GI50 [8]: 2960 nM
TGI [8]: 8.38 µM
GI50 [9]: 4.09 µM
TGI [9]: 15.1 µM
GI50 [10]: 15.4 µM
TGI [10]: 30.3 µM
GI50 [11]: 5.12 µM
TGI [11]: 17.8 µM
GI50 [12]: 1850 nM
TGI [12]: 4.52 µM
GI50 [13]: 1650 nM
TGI [13]: 5.48 µM
GI50 [14]: 15.8 µM
TGI [14]: 35.1 µM
GI50 [15]: 3.65 µM
TGI [15]: 14.6 µM
GI50 [16]: 4.4 µM
TGI [16]: 47.9 µM
GI50 [17]: 1900 nM
TGI [17]: 3.85 µM
GI50 [18]: 5.66 µM
TGI [18]: 19.7 µM
GI50 [19]: 3.04 µM
TGI [19]: > 100 µM
GI50 [20]: 2990 nM
TGI [20]: 10.3 µM
GI50 [21]: 1570 nM
TGI [21]: 2920 nM
GI50 [22]: 4.24 µM
TGI [22]: 19.2 µM
GI50 [23]: 7.35 µM
TGI [23]: 21.8 µM
GI50 [24]: 1830 nM
TGI [24]: 5.45 µM
GI50 [25]: 2410 nM
TGI [25]: 5.41 µM
GI50 [26]: 2250 nM
TGI [26]: 5.79 µM
GI50 [27]: 1620 nM
TGI [27]: 3.63 µM
GI50 [28]: 3.31 µM
TGI [28]: 17.2 µM
